Reference: US8236820B2, “Anti-inflammatory compounds and uses thereof” (priority 2007, dated 2012)

Assays:
[1] = test system: SW480 and HT-29 human colon cancer cells; experiment: Cell kinetics of colon cancer cells treated with phospho-sulindac I; assay type: cell-based
Procedure: Cell proliferation assay: To determine cell proliferation, we measured the incorporation of 5-bromo-2′-deoxyuridine (BrdU) into newly synthesized cellular DNA, following the manufacture's instructions (BD Biosciences, San Jose, Calif.).
(§1) Annexin V and propidium iodide (PI) staining: Cells were seeded at a density of 1×10^5 cells/well and treated for 24 h with various concentrations of each compound or equivalent volumes of DMSO. Briefly, after incubation with the test compounds, cells were trypsinized and stained with Annexin V-FITC (Invitrogen) and PI (0.5 μg/ml). Following incubation at room temperature for 15 min in the dark, annexin V-FITC and PI fluorescence intensities were analyzed by FACScaliber (BD Bioscience). Annexin V (+)/PI (−) cells are in early apoptosis, annexin V (+)/PI (+) cells are in late apoptosis (secondary necrosis), and annexin V (−)/ PI (+) cells are necrotic cells.
Determination of cell cycle phase distribution (PI incorporation assay): Cells were seeded in culture plates and treated for 24 h with various concentrations of each compound or equivalent volumes of DMSO. After treatment, cells were trypsinized and fixed in 70% ethanol for 1 h on ice, stained with PI (50 μg/ml) and RNase A (4 U/ml) for 30 min and subjected to flow cytometric analysis for the determination of their distribution in the cell cycle phases.

BxPC-3 = experiment: Cell viability (MTT) assay, 24-h IC50, BxPC-3; settings: Homo sapiens, BXPC-3, 24 h, read-out: 24-h IC50
Procedure: Cells were incubated at 37° C. in 5% CO2. Cells were seeded at 5.5×10^4 cells/cm^2, allowed to attach overnight, and the following morning cells were treated with each of the test compounds.
Cell viability assay: We used an assay based on the reduction of 3-(4,5-dimethylthiazol-2-yl)-2,5-diphenyltetrazolium bromide dye (MTT), which was determined according to the manufacture's protocol (Promega, Madison, Wis., USA).

[2] = test system: MDA-MB 231 human breast cancer cells; experiment: Annexin V and propidium iodide staining in MDA-MB231; assay type: cell-based; settings: MDA-MB231, compound at its IC50, 24 h
Procedure: as §1
As summarized in Table 2 below, in MDA-MB231 cells, all six compounds, each used at its IC50 concentration, a) inhibited cell proliferation between 6% and 50% compared to controls; b) induced both early and late apoptosis, as well as necrosis; and c) inhibited the G1 to S cell cycle phase transition. In this Table, the values for proliferation are the percentage of the corresponding control values. Those for apoptosis and necrosis refer to the percentage of cells in each category with respect to the entire cell population, and are to be compared to the control (vehicle only-treated) cells (uppermost row).

SW480 = experiment: Cell viability (MTT) assay, 24-h IC50, SW480; assay type: cell-based, human; settings: Homo sapiens, SW480, 24 h, read-out: 24-h IC50
[3] = 24 h at its 24-h IC50, vs untreated controls

SMILES: CCOP(=O)(OCC)OCCCCOC(=O)CC1=C(C)/C(=C/c2ccc([S+](C)[O-])cc2)c2ccc(F)cc21 (stereo not drawn) [Phospho-sulindac I]
- effect on G1 to S cell cycle phase transition ([1]; 24 h at its 24-h IC50): blocked the transition form the G1 to the S cell cycle phase
- induced apoptosis (early and late subtypes combined) [1, 3]: 201%
- induced necrosis [1, 3]: 1350%
- inhibited cell proliferation [1, 3]: 72%
- necrosis in treated cells ([1]; 24 h at its 24-h IC50, controls 0.2%): 2.9%
- apoptosis (early and late combined) in treated cells ([1]; 24 h at its 24-h IC50, controls 6.6%): 20%
- cell proliferation in treated cells ([1]; 24 h at its 24-h IC50, controls 43%): 12%
- IC50 (BxPC-3): 62 µM
- Necrosis (%) ([2]; % of entire cell population (control 0.6)): 1.1%
- Early apoptosis (%) ([2]; % of entire cell population (control 1.4)): 1.7%
- Late apoptosis (%) ([2]; % of entire cell population (control 2.0)): 4.7%
- IC50 (SW480): 98 µM
